Laboratory results from patent US20090264415A2 (priority 2004, published 2009).
pIC50: −log10 of the molar value. Read-outs that look alike come from different tables or passages of the source.

Tested on: peripheral blood mononuclear cells (PBMC) stimulated with allogeneic PBMC or EBV-transformed human B cells (RPMI1788)
Assay: Mixed lymphocyte reaction (MLR) assay
Assay type: cell-based
Outline: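 Compounds, held as 10 mM DMSO stocks and diluted in culture medium, were added to PBMC stimulated by 30 Gy-irradiated allogeneic PBMC or RPMI1788 cells. Proliferation was read as [3H]-thymidine uptake (1 μCi, final 16 h) after 5 days at 37° C. Inhibition was derived from cpm.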

[1] = 50% suppression of the MLR, [3H]-thymidine incorporation, read-out: MLR
[2] = Homo sapiens, RPMI-1788, MLR assay of example 319, read-out: MLR IC50
[3] = Homo sapiens, RPMI-1788, 50% suppression of the MLR, [3H]-thymidine incorporation, read-out: MLR

Row | Compound | pIC50 [2] | other results
1 | COc1ccc(-c2ccc3ncnc(N4CCN(C(=O)Nc5ccc(F)cc5)CC4)c3n2)cc1OC [Example 111, 4-[(N-4-fluorophenylcarbamoyl)-piperazin-1-yl]-6-(3,4-dimethoxyphenyl)-pyrido[3,2-d]pyrimidine] | – | pIC50 [1]: 7.52
2 | Cc1cccc(C)c1-c1ccc2nc(N)nc(N3CCN(C(=O)COc4ccc(Cl)cc4)CC3)c2n1 [Example 433, 2-amino-4-[4-(4-chlorophenoxyacetyl)piperazin-1-yl]-6-(2,6-dimethylphenyl)-pyrido-[3,2-d]pyrimidine] | 5.44 | –
3 | Cc1cccc(NC(=O)N2CCN(c3nc(N)nc4ccc(-c5ccc(C#N)cc5)nc34)CC2)c1 [Example 543, 2-amino-4-[(3-methylphenylcarbamoyl)-piperazin-1-yl]-6-(4-cyano-phenyl)-pyrido[3,2-d]pyrimidine] | 7.52 | –
4 | N#Cc1ccccc1-c1ccc2nc(N)nc(N3CCN(C(=O)COc4ccc(Cl)cc4)CC3)c2n1 [Example 416, 2-amino-4-[4-(4-chlorophenoxyacetyl)piperazin-1-yl]-6-(2-cyanophenyl)pyrido-[3,2-d]pyrimidine] | 7.92 | –
5 | COc1ccc(-c2ccc3nc(OCCOc4ccccc4)nc(N4CCN(C(=O)Nc5cccc(C)c5)CC4)c3n2)cc1OC [Example 18] | – | pIC50 [1]: 6.05
6 | CNc1nc(N2CCN(C(=O)OC(C)(C)C)CC2)c2nc(-c3ccc(F)cc3)ccc2n1 [Example 569, 2-methylamino-6-(4-fluorophenyl)-4-(4-Boc-piperazino)-pyrido[3,2-d]pyrimidine and 2,4-dimethylamino-6-(4-fluorophenyl)pyrido[3,2-d]pyrimidine] | 5.23 | –
7 | NCC(=O)N1CCN(c2nc(N)nc3ccc(-c4ccc(F)cc4)nc23)CC1 [Example 444, 2-amino-4-[4-(aminoacetyl)-piperazin-1-yl]-6-(4-fluorophenyl)-pyrido[3,2-d]pyrimidine] | 5.64 | –
8 | CNC(=O)N1CCN(c2nc(N)nc3ccc(-c4ccc(F)cc4)nc23)CC1 [Example 452, 2-amino-4-[4-(N-methylcarbamoyl)-piperazin-1-yl]-6-(4-fluorophenyl)-pyrido[3,2-d]pyrimidine] | 6.40 | –
9 | COc1cc(-c2ccc3nc(N)nc(N4CCOCC4)c3n2)ccc1OC1CCCC1 [Example 98, 2-amino-4-(N-morpholino)-6-(4-cyclopentyloxy-3-methoxyphenyl)-pyrido[3,2-d]pyrimidine] | – | pIC50 [1]: 5.12
10 | Cc1cccc(NC(=O)N2CCN(c3nc(N)nc4ccc(-c5ccccc5Cl)nc34)CC2)c1 [Example 549, 2-amino-4-[(3-methylphenylcarbamoyl)-piperazin-1-yl]-6-(2-chlorophenyl)-pyrido[3,2-d]pyrimidine] | 7.10 | –
11 | CNC(=O)c1ccc(-c2ccc3nc(N)nc(N4CCN(C(=O)COc5ccc(Cl)cc5)CC4)c3n2)cc1 [Example 443, 2-amino-4-[4-(4-chlorophenoxyacetyl)piperazin-1-yl]-6-[4-(methylaminocarbonyl)phenyl]-pyrido-[3,2-d]pyrimidine] | 8.15 | –
12 | CC(C)(C)OC(=O)N[C@@H]1CCN(c2nc(N)nc3ccc(-c4ccc(F)cc4)nc23)C1 [Example 575, 2-amino-4-[(R)-3-Boc-amino-pyrrolidin-1-yl]-6-(4-fluorophenyl)-pyrido(3,2-d)pyrimidine] | < 5.00 | –
13 | COc1cccc(-c2ccc3nc(N)nc(N4CCOCC4)c3n2)n1 [Example 236, 2-amino-4-morpholino-6-(6-methoxy-2-pyridinyl)-pyrido[3,2-d]pyrimidine] | – | pIC50 [3]: 5.28
14 | Cc1cccc(NC(=O)N2CCC(Nc3nc(N)nc4ccc(-c5ccc(F)cc5)nc34)C2)c1 [Example 580, 2-amino-4-[1-(3-methylphenylcarbamoyl)-(S)-amino-pyrrolidin-3-yl]-6-(4-fluorophenyl)-pyrido(3,2-d)pyrimidine] | 6.52 | –
15 | Nc1nc(N2CCN(C(=O)COc3ccc(Cl)cc3)CC2)c2nc(-c3ccc4[nH]ccc4c3)ccc2n1 [Example 412, 2-amino-4-[4-(4-chlorophenoxyacetyl)piperazin-1-yl]-6-(indol-5-yl)pyrido-[3,2-d]pyrimidine] | 7.41 | –
16 | Nc1nc(N2CCN(C(=O)COc3ccc(Cl)cc3)CC2)c2nc(-c3ccc(Cl)cc3Cl)ccc2n1 [Example 427, 2-amino-4-[4-(4-chlorophenoxyacetyl)piperazin-1-yl]-6-(2,4-dichlorophenyl)-pyrido-[3,2-d]pyrimidine] | 6.52 | –
17 | Cc1cccc(NC(=O)N2CCN(c3nc(N)nc4ccc(-c5cccc(C#N)c5)nc34)CC2)c1 [Example 545, 2-amino-4-[(3-methylphenylcarbamoyl)-piperazin-1-yl]-6-(3-cyanophenyl)-pyrido[3,2-d]pyrimidine] | 7.52 | –
18 | Nc1nc(N2CCN(C(=O)c3ccco3)CC2)c2nc(-c3ccc4c(c3)OCO4)ccc2n1 [Example 192, 2-amino-4-[N-(2-furoyl)-piperazin-1-yl]-6-(3,4-methylenedioxyphenyl)-pyrido[3,2-d]pyrimidine] | – | pIC50 [3]: 5.09

Row | Compound | pIC50 [2] | other results
19 | CCOc1ccc(-c2ccc3nc(N)nc(N4CCN(C(=O)COc5ccc(Cl)cc5)CC4)c3n2)cc1 [Example 494, 2-amino-4-[N-(4-chlorophenoxyacetyl)-piperazin-1-yl]-6-(4-ethoxyphenyl)-pyrido(3,2-d)pyrimidine] | 7.48 | –
20 | COc1ccccc1-c1ccc2nc(N)nc(N3CCN(C(=O)COc4ccc(Cl)cc4)CC3)c2n1 [Example 422, 2-amino-4-[4-(4-chlorophenoxyacetyl)piperazin-1-yl]-6-(2-methoxyphenyl)pyrido-[3,2-d]pyrimidine] | 7.00 | –
21 | CC(C)(C)OC(=O)N1C[C@@H]2C[C@H]1CN2c1nc(N)nc2ccc(-c3ccc(F)cc3)nc12 [Example 483, (S,S)-5-[2-amino-6-(4-fluorophenyl)-pyrido[3,2-d]pyrimidin-4-yl]-2,5-diaza-bicyclo[2.2.1]heptane-2-carboxylic acid tert-butyl ester] | 5.21 | –
22 | Nc1nc(N2CCN(C(=O)CCOc3ccc(Cl)cc3)CC2)c2nc(-c3ccc(F)cc3)ccc2n1 [Example 473, 2-amino-4-{4-[3-(4-chlorophenoxy)propionyl]-piperazin-1-yl}-6-(4-fluorophenyl)-pyrido[3,2-d]pyrimidine] | 6.30 | –
23 | COc1ccc(-c2ccc3nc(N)nc(N4CC[C@@H](NC(=O)Nc5cccc(C)c5)C4)c3n2)cc1OC [Example 260] | – | pIC50 [3]: 5.68
24 | CC(Oc1ccccc1)C(=O)N1CCN(c2nc(N)nc3ccc(-c4ccc(F)cc4)nc23)CC1 (stereo not drawn) [Example 474, 2-amino-4-[4-(2-phenoxypropionyl)piperazin-1-yl]-6-(4-fluorophenyl)-pyrido[3,2-d]pyrimidine] | 6.00 | –
25 | C[C@@H]1CN(C(=O)OC(C)(C)C)CCN1c1nc(N)nc2ccc(-c3ccc(F)cc3)nc12 [Example 481, (R)-4-[2-amino-6-(4-fluorophenyl)-pyrido[3,2-d]pyrimidin-4-yl]-3-methylpiperazine-1-carboxylic acid tert-butyl ester] | < 5.00 | –
26 | Cc1ccc(-c2ccc3nc(N)nc(N4CCN(C(=O)COc5ccc(Cl)cc5)CC4)c3n2)cc1N [Example 507, 2-amino-4-[N-(4-chlorophenoxyacetyl)-piperazin-1-yl]-6-(3-amino-4-methylphenyl)-pyrido(3,2-d)pyrimidine] | 7.54 | –
27 | Cc1cccc(-c2ccc3nc(N)nc(N4CCN(C(=O)COc5ccc(Cl)cc5)CC4)c3n2)c1 [Example 498, 2-amino-4-[N-(4-chlorophenoxyacetyl)-piperazin-1-yl]-6-(3-methyl-phenyl)-pyrido(3,2-d)pyrimidine] | 8.10 | –
28 | Nc1nc(NC2CCN(C(=O)COc3ccccc3)CC2)c2nc(-c3ccc(F)cc3)ccc2n1 [Example 485, 2-amino-4-[1-(phenoxyacetyl)piperid-4-ylamino]-6-(4-fluorophenyl)-pyrido[3,2-d]pyrimidine] | 6.52 | –
29 | COc1ccc(-c2ccc3nc(N4CCOCC4)nc(N4CCN(C(=O)Nc5cccc(C)c5)CC4)c3n2)cc1OC [Example 88] | – | pIC50 [1]: 6.40
30 | Nc1nc(N2CCN(C(=O)COc3ccc(Cl)cc3)CC2)c2nc(-c3ccccc3)ccc2n1 [Example 421, 2-amino-4-[4-(4-chlorophenoxyacetyl)piperazin-1-yl]-6-phenylpyrido-[3,2-d]pyrimidine] | 7.31 | –
31 | CC(C)(C)OC(=O)N1CCCC(Nc2nc(N)nc3ccc(-c4ccc(F)cc4)nc23)C1 (stereo not drawn) [Example 457, 2-amino-4-[1-(tert-butoxycarbonyl)piperid-3-ylamino]-6-(4-fluorophenyl)-pyrido[3,2-d]pyrimidine] | 5.18 | –
32 | CCOc1ccc(-c2ccc3ncnc(N4CCN(C(=O)Nc5cccc(C)c5)CC4)c3n2)cc1Cl [Example 560, 4-[(3-methylphenylcarbamoyl)-piperazin-1-yl]-6-(3-chloro-4-ethoxyphenyl)pyrido[3,2-d]pyrimidine] | 6.42 | –
33 | Cc1cccc(NC(=O)N2CCN(c3ncnc4ccc(-c5cc(F)c(F)c(F)c5)nc34)CC2)c1 [Example 561, 4-[(3-methylphenylcarbamoyl)-piperazin-1-yl]-6-(3,4,5-trifluorophenyl)pyrido[3,2-d]pyrimidine] | 6.38 | –
34 | Nc1nc(N2CCN(C(=O)COc3ccc(Br)cc3)CC2)c2nc(-c3ccc(F)cc3)ccc2n1 [Example 388, 2-amino-4-[4-(4-bromophenoxyacetyl)piperazin-1-yl]-6-(4-fluorophenyl)-pyrido[3,2-d]pyrimidine] | 7.30 | –
35 | Nc1nc(N2CCOCC2)c2nc(-c3ccc(Cl)c(Cl)c3)ccc2n1 [184/231, 2-amino-4-(morpholino)-6-(3,4-dichlorophenyl)-pyrido[3,2-d]pyrimidine] | – | pIC50 [3]: 5.41
36 | CNc1nc(N2CCN(C(=O)COc3ccc(Cl)cc3)CC2)c2nc(-c3ccc(F)cc3)ccc2n1 [Example 574, 2-methylamino-4-[N-(4-chlorophenoxyacetyl)-piperazin-1-yl]-6-(4-fluorophenyl)-pyrido[3,2-d]pyrimidine] | 6.47 | –
